Where “and” joins values, the source holds several entries; their conditions need not be identical. Identical values can stand only once.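 Each compound was tested at five concentrations against cells in 96-well plates for 48 hours. GI50 = concentration required for 50% inhibition of growth. TGI: concentration producing complete growth inhibition.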
Assays:
Experiment in all cases: DTP human tumour cell line panel, 48 h
[1] = system: K-562 leukemia
[2] = system: M14 melanoma
[3] = system: SNB-19 CNS
[4] = system: OVCAR-8 ovarian
[5] = system: HOP-92 NSCLC
[6] = system: NCI-H522 lung
[7] = system: HCT-15 colon
[8] = system: MCF7 breast
[9] = system: MDA-MB-231 breast
[10] = system: T-47D breast

For CCOC(=O)C1(C(=O)OCC)CC=C(C)CC12C(=O)Nc1ccccc12 (centres undefined), the TGI [1] was over 100 µM, the TGI [2] was over 100 µM and the TGI [3] was over 100 µM. It also gave a TGI [4] of over 100 µM, a TGI [5] of over 100 µM and a TGI [6] of over 100 µM. For the same molecule, the TGI [7] was over 100 µM.
COc1cc(/C=C/C(=O)c2cc(OC)c(OC)c(OC)c2)cc(OC)c1OC was tested, and the GI50 [1] was 2.46 µM, the TGI [1] was over 100 µM and the GI50 [2] was 2.82 µM. For the same molecule, the TGI [2] was 12.7 µM, the GI50 [3] was 11 µM and the TGI [3] was 27.3 µM. The GI50 [4] was 3.49 µM, the TGI [4] was over 100 µM and the GI50 [8] was 3.05 µM. For the same molecule, the TGI [8] was 15.3 µM, the GI50 [5] was 2.53 µM and the TGI [5] was 20.5 µM. For the same molecule, the GI50 [9] was 6.89 µM, the TGI [9] was over 100 µM and the GI50 [10] was 3.5 µM. It also gave a TGI [10] of 31.5 µM, a GI50 [6] of 3.09 µM and a TGI [6] of 12.1 µM. The GI50 [7] was 3.41 µM and the TGI [7] was 62.9 µM.
In the case of CC(C)(C)n1cc(-c2ccnc(NCCNS(=O)(=O)c3cccc4ccccc34)c2)c(-c2cccc(F)c2)n1, the GI50 [1] is reported as 5.9 µM, the TGI [1] is reported as 82.2 µM and the GI50 [2] is reported as 11.7 µM. It also gave a TGI [2] of 48.2 µM, a GI50 [3] of 34.9 µM and a TGI [3] of over 100 µM. The GI50 [4] was 26.7 µM, the TGI [4] was over 100 µM and the GI50 [8] was 16.3 µM. For the same molecule, the TGI [8] was 59.6 µM, the GI50 [5] was 2.74 µM and the TGI [5] was 21.2 µM. The GI50 [9] was 24.2 µM, the TGI [9] was over 100 µM and the GI50 [10] was 4.22 µM. It also gave a TGI [10] of 47.8 µM, a GI50 [6] of 15.5 µM and a TGI [6] of 44.5 µM. For the same molecule, the GI50 [7] was 6 µM and the TGI [7] was 24.9 µM.
Molecule C[C@@]12CCC[C@@](C)(C(=O)O)C1CC[C@@]13CC(=O)[C@@](CO)(CCC12)C3 (some centres undefined) has a GI50 [1] of over 100 µM, a TGI [1] of over 100 µM and a GI50 [2] of over 100 µM. The TGI [2] was over 100 µM, the GI50 [3] was over 100 µM and the TGI [3] was over 100 µM. It also gave a GI50 [4] of over 100 µM, a TGI [4] of over 100 µM and a GI50 [8] of over 100 µM. For the same molecule, the TGI [8] was over 100 µM, the GI50 [5] was over 100 µM and the TGI [5] was over 100 µM. It also gave a GI50 [9] of over 100 µM, a TGI [9] of over 100 µM and a GI50 [10] of over 100 µM. It also gave a TGI [10] of over 100 µM, a GI50 [6] of over 100 µM and a TGI [6] of over 100 µM. It also gave a GI50 [7] of over 100 µM and a TGI [7] of over 100 µM.
Molecule Cn1cnc([N+](=O)[O-])c1Sc1nnc(C(F)(F)F)n1C has a TGI [1] of 63.6 µM, a TGI [2] of 37.2 µM and a TGI [3] of over 100 µM. The TGI [4] was 67.8 µM, the TGI [5] was 34.7 µM and the TGI [6] was 23.9 µM.
Work on CN1CCN(c2cc(Nc3cc(C4CC4)[nH]n3)nc(Nc3ccc(CC(=O)NCc4cccc(F)c4)cc3)n2)CC1 yielded a GI50 [1] of 0.423 µM, a TGI [1] of 11.6 µM and a GI50 [2] of 0.752 µM. It also gave a TGI [2] of 2.41 µM, a GI50 [3] of 2.25 µM and a TGI [3] of 23.4 µM. It also gave a GI50 [4] of 2.18 µM, a TGI [4] of 30.1 µM and a GI50 [8] of 0.108 µM. It also gave a TGI [8] of 2.05 µM, a GI50 [5] of 0.288 µM and a TGI [5] of 4.8 µM. For the same molecule, the GI50 [9] was 0.451 µM, the TGI [9] was 6.16 µM and the GI50 [10] was 2.27 µM. The TGI [10] was 13.8 µM, the GI50 [6] was 1.53 µM and the TGI [6] was 7.08 µM. For the same molecule, the GI50 [7] was 2.9 µM and the TGI [7] was 14.5 µM.
Work on COP1(=S)OCC2CCC[C@@H]2O1 (some centres undefined) yielded a TGI [1] of over 100 µM, a TGI [2] of over 100 µM and a TGI [3] of over 100 µM. It also gave a TGI [4] of over 100 µM, a TGI [5] of over 100 µM and a TGI [9] of over 100 µM. The TGI [10] was over 100 µM, the TGI [6] was over 100 µM and the TGI [7] was over 100 µM.
Molecule CC(C)CC(=O)CC(O)C(Cl)(Cl)Cl (centres undefined) has a TGI [1] of over 100 µM, a TGI [2] of over 100 µM and a TGI [3] of over 100 µM. For the same molecule, the TGI [4] was over 100 µM, the TGI [8] was over 100 µM and the TGI [9] was over 100 µM. For the same molecule, the TGI [10] was over 100 µM, the TGI [6] was over 100 µM and the TGI [7] was over 100 µM.
Work on C=C1C(=O)O[C@H]2[C@H]1CC(=O)/C(C)=C\CC[C@@]1(C)O[C@@H]21 yielded a GI50 [1] of 0.842 µg/mL, a TGI [1] of 4.15 µg/mL and a GI50 [2] of 3.38 µg/mL. The TGI [2] was 11.8 µg/mL, the GI50 [3] was 7.62 µg/mL and the TGI [3] was 16.1 µg/mL. For the same molecule, the GI50 [4] was 3.98 µg/mL, the TGI [4] was 7.81 µg/mL and the GI50 [8] was 1.77 µg/mL. For the same molecule, the TGI [8] was 10.1 µg/mL, the GI50 [5] was 1.94 µg/mL and the TGI [5] was 4.32 µg/mL. The GI50 [9] was 4.58 µg/mL, the TGI [9] was 8.82 µg/mL and the GI50 [10] was 2.57 µg/mL. It also gave a TGI [10] of 9.53 µg/mL, a GI50 [6] of 0.411 µg/mL and a TGI [6] of 0.957 µg/mL. For the same molecule, the GI50 [7] was 0.83 µg/mL and the TGI [7] was 3.68 µg/mL.
With COC(=O)C(=O)C(C#N)c1ccc(Cl)c(Cl)c1 (centres undefined) the TGI [1] was over 100 µM, the TGI [2] was over 100 µM and the TGI [5] was over 100 µM. For the same molecule, the TGI [6] was over 100 µM and the TGI [7] was over 100 µM.
O=C1CCC2CCOc3ccc(O)c1c32 (centres undefined) was tested, and the TGI [1] was over 100 µM, the TGI [2] was over 100 µM and the TGI [3] was over 100 µM. The TGI [4] was over 100 µM, the TGI [5] was over 100 µM and the TGI [6] was over 100 µM. The TGI [7] was over 100 µM.
CC(C)(C)C(=O)OCC(COC(=O)C(C)(C)C)[N+](=O)[O-] gave a TGI [1] of over 100 µM, a TGI [2] of over 100 µM and a TGI [3] of over 100 µM. The TGI [4] was over 100 µM, the TGI [6] was 47.3 µM and the TGI [7] was over 100 µM.
Work on O=C1c2ccccc2C2(O)Oc3cccc(O)c3C12O (centres undefined) yielded a TGI [1] of over 100 µM, a TGI [2] of over 100 µM and a TGI [3] of over 100 µM. The TGI [4] was over 100 µM, the TGI [5] was over 100 µM and the TGI [6] was over 100 µM. The TGI [7] was over 100 µM.
CCCCCCCCCC(=O)N[C@H]1CCc2cc(OC)c(OC)c(OC)c2-c2ccc(SC)c(=O)cc21 gave a TGI [1] of 29.5 µM, a TGI [3] of 75 µM and a TGI [5] of 0.0788 µM. It also gave a TGI [7] of 0.0901 µM.
With COc1ccc(Cn2cc(Cn3c(=O)c(-c4nc5ccccc5[nH]4)cc4ccccc43)nn2)c(OC)c1OC the GI50 [1] was 0.162 µM and 0.191 µM, the TGI [1] was 50 µM and > 100 µM and the GI50 [3] was 0.423 µM. The TGI [3] was over 100 µM, the GI50 [4] was 0.213 µM and 0.486 µM and the GI50 [8] was 0.0789 µM and 0.0495 µM. The GI50 [5] was 0.48 µM and 0.39 µM, the TGI [5] was 1.92 µM and 9.69 µM and the GI50 [9] was 0.292 µM and 0.451 µM. For the same molecule, the TGI [9] was 1.54 µM and 3.07 µM, the GI50 [10] was 0.154 µM and 0.804 µM and the GI50 [6] was 0.148 µM and 0.176 µM. For the same molecule, the GI50 [7] was 0.378 µM and the TGI [7] was over 100 µM.
In the case of O=C1CC(c2c[nH]c3ccccc23)C(=O)N1c1ccccc1 (centres undefined), the TGI [1] is reported as over 100 µM, the TGI [2] is reported as over 100 µM and the TGI [4] is reported as over 100 µM. It also gave a TGI [7] of over 100 µM.
In the case of COc1ccc2sc3c(NCCCNCCO)nc4ccccc4c3c(=O)c2c1, the GI50 [1] is reported as 1.83 µM, the TGI [1] is reported as 4.32 µM and the GI50 [2] is reported as 1.82 µM. For the same molecule, the TGI [2] was 3.48 µM, the GI50 [3] was 1.65 µM and the TGI [3] was 3.15 µM. It also gave a GI50 [4] of 1.65 µM, a TGI [4] of 3.45 µM and a GI50 [8] of 1.54 µM. The TGI [8] was 3.1 µM, the GI50 [5] was 1.35 µM and the TGI [5] was 6.74 µM. The GI50 [9] was 1.48 µM, the TGI [9] was 2.95 µM and the GI50 [6] was 1.74 µM. For the same molecule, the TGI [6] was 3.37 µM, the GI50 [7] was 1.45 µM and the TGI [7] was 2.87 µM.
Work on CC(=O)OC1=C2C(CC3C4CC=C5CC(OC(C)=O)CCC5(C)C4CCC23C)C2C(=O)N(Cc3ccccc3)C(=O)C2C1 (centres undefined) yielded a GI50 [1] of 4.33 µM, a TGI [1] of over 100 µM and a GI50 [2] of 7.77 µM. The TGI [2] was 75.3 µM, the GI50 [3] was 9.22 µM and the TGI [3] was over 100 µM. For the same molecule, the GI50 [4] was 6.9 µM, the TGI [4] was over 100 µM and the GI50 [8] was 2.71 µM. The TGI [8] was 15 µM, the GI50 [9] was 11.1 µM and the TGI [9] was 72.7 µM. It also gave a GI50 [10] of 3.12 µM, a TGI [10] of 20.1 µM and a GI50 [6] of 7.29 µM. For the same molecule, the TGI [6] was 58.7 µM, the GI50 [7] was 3.09 µM and the TGI [7] was over 100 µM.

Source: PubChem BioAssay (NCI)
